The assay concerns STAM model of non-alcoholic steatohepatitis (NASH mice). The assay is described as follows: In vivo efficacy study of DR6-MP in STAM model of non-alcoholic steatohepatitis. Also on record: species or system C57BL/6 mice. The conditions noted are these: 10 mg/kg orally once daily from 6 to 9 weeks of age.

The structures appear in SMILES notation.

Data on one molecule can be found in patent US10828308B2, “Treatment of non-alcoholic fatty liver disease or non-alcoholic steatohepatitis with delayed-release 6-mercaptopurine” (Hadasit Medical Research Services and Development Ltd., priority 2015, dated 2020).

Text: Pathogen-free 14 day-pregnant C57BL/6 mice were obtained. NASH was established in male mice by a single subcutaneous injection of 200 τg streptozotocin after birth and feeding with a high fat diet ad libitum after 4 weeks of age (day 28±2). Mice were randomized into 5 groups of 8 mice at 6 weeks of age (day 42±2), the day before the start of treatment. Group 1 (Normal): Eight normal mice were fed with normal diet ad libitum without any treatment until 9 weeks of age. Group 2 (Vehicle): Eight NASH mice were orally administered vehicle [0.5% Methyl cellulose] in a volume of 10 mL/kg once daily from 6 to 9 weeks of age. […]
Mice in all groups were sacrificed for the following assays at 9 weeks of age: • Measurement of organ weight • Individual liver weight was measured. • Liver-to-body weight ratio was calculated. • Biochemical assays • Serum ALT and AST levels were measured. • Liver triglyceride contents were quantified. • Histological analyses for liver sections (according to a routine method). • HE staining and estimation of NAFLD Activity score. • Sirius-red staining and estimation of fibrosis area. • Immunochemical staining for F4/80 and estimation of the percentage of inflammation area. • Gene expression assays using total RNA from the liver. • Real-time RT-PCR analyses were performed for TNF-α, INF-γ, IL-10, MCP-1, CCR2, α-SMA, TGF-β, Collagen Type 1, Collagen Type 3, TIMP-1.

As for `CCCc1nc2c(C)cc(-c3nc4ccccc4n3C)cc2n1Cc1ccc(-c2ccccc2C(=O)O)cc1` [Telmisartan], the “fibrosis area (Sirius red-positive area) compared with the Vehicle group” value is given as “significant decreases in fibrosis area”. For the same molecule, where the note is “liver sections at 9 weeks”, the “Sirius red-positive area (%) (mean ± SD)” value was determined as 0.74 ± 0.21%.
